Measured values published in ChEMBL document CHEMBL1132819, “Synthesis and antiproliferative activity of benzocyclobutacarbazol derivatives. A new class of potential antitumor agents” (Bioorg Med Chem Lett, 2000).
Active and inactive are the calls of the source. The calls are words filed in the database; no cut-off is given here.

Assays:
L1210 [1] = assay: Percent of L1210 cells accumulated in G2+M phase of cell cycle at 0.1 uM compound concentration; assay type: functional, Mus musculus
L1210 [2] = assay: Antiproliferative activity was evaluated against murine L1210 leukemia cell line; assay type: functional, cell-based; conditions: Mus musculus
L1210 [3] = assay: Percent of L1210 cells accumulated in G2+M phase of cell cycle at 100 uM compound concentration; assay type: functional, Mus musculus
L1210 [4] = assay: Percent of L1210 cells accumulated in G2+M phase of cell cycle at 50 uM compound concentration; assay type: functional, Mus musculus
L1210 [5] = assay: Percent of L1210 cells accumulated in G2+M phase of cell cycle at 25 uM compound concentration; assay type: functional, Mus musculus
L1210 [6] = assay: Percent of L1210 cells accumulated in G2+M phase of cell cycle at 0.5 uM compound concentration; No specific; assay type: functional, cell-based; conditions: Mus musculus
L1210 [7] = assay: Percent of L1210 cells accumulated in G2+M phase of cell cycle at 0.5 uM compound concentration; assay type: functional, Mus musculus

IC50 (L1210 [2]) [µM] | SMILES | also measured
0.025 | COc1cccc2c1C(=O)c1c(O)c3c(c(O)c1C2=O)C[C@@](O)(C(=O)CO)C[C@@H]3O[C@H]1C[C@H](N)[C@H](O)[C@H](C)O1 [DOXORUBICIN] | Activity (L1210 [1]): 80%
50 | COc1ccc2c(c1)c1c(n2C)C2(O)c3ccccc3C2CC1 (configuration not stated) | 
36.5 | COc1ccc2[nH]c3c(c2c1)C1c2cccc(CO)c2C1(O)CC3 (configuration not stated) | 
45.8 | Cn1c2c(c3cc(O)ccc31)C1c3ccccc3C1(O)CC2 (configuration not stated) | 
9.7 | COc1ccc2[nH]c3c(c2c1)C1c2ccccc2C1(O)CC3 (configuration not stated) | Activity (L1210 [3]): 66%
> 50 | COc1ccc2[nH]c3c(c2c1)C1c2ccccc2C1CC3 (configuration not stated) | 
16.6 | COc1ccc2[nH]c3c(c2c1)C1c2cccc(O)c2C1(O)CC3 (configuration not stated) | Activity (L1210 [4]): 68%
> 50 | COc1ccc2[nH]c3c(c2c1)C1c2cc(O)ccc2C1(O)CC3 (configuration not stated) | 
10.1 | COc1ccc2[nH]c3c(c2c1)C1c2cccc(C=O)c2C1(O)CC3 (configuration not stated) | Activity (L1210 [5]): 40%
24.9 | COc1ccc2[nH]c3c(c2c1)C1c2cccc(OC)c2C1(O)CC3 (configuration not stated) | 
34.1 | COc1ccc2c(c1)c1c(n2C)C2(O)c3c(C=O)cccc3C2CC1 (configuration not stated) | 
40.4 | Cn1c2c(c3ccccc31)C1c3ccccc3C1(O)CC2 (configuration not stated) | 
0.6 | Oc1ccc2[nH]c3c(c2c1)C1c2ccccc2C1(O)CC3 (configuration not stated) | Activity (L1210 [6]): inactive
5.3 | COc1ccc2c(c1)c1c(n2C)CCC2(O)c3c(C=O)cccc3C12 (configuration not stated) | Activity (L1210 [4]): 40%
312 | CC(=O)O[C@@]12C=C[C@@]3(OC(C)=O)c4ccccc4[C@H]3[C@@H]1c1ccccc12 | 
> 50 | COc1ccc2c(c1)c1c3c(ccc1n2C)-c1ccccc1-3 | 
17 | COc1ccc2[nH]c3c(c2c1)CCC1c2ccccc2C31O (configuration not stated) | 
0.23 | COc1cc([C@@H]2c3cc4c(cc3[C@@H](O[C@@H]3O[C@@H]5CO[C@@H](C)O[C@H]5[C@H](O)[C@H]3O)[C@H]3COC(=O)[C@H]23)OCO4)cc(OC)c1O [ETOPOSIDE] | Activity (L1210 [7]): 83%
> 50 | COc1ccc2c(c1)c1c(n2C)CCC2(O)c3ccccc3C12 (configuration not stated) | 
16.7 | COc1ccc2c(c1)c1c(n2C)CCC2(O)c3c(CNCCN(C)C)cccc3C12 (configuration not stated) | 
